Test results reported in ChEMBL document CHEMBL2321675, “Irreversible inhibitors of cysteine proteases” (ACS Med Chem Lett, 2013).

Experiments:
[1] = molecular target: T1, Caspase-10 (Homo sapiens, UniProt Q92851); test: Inhibition of caspase-10 (unknown origin)
T1 sequence (Q92851 whole entry): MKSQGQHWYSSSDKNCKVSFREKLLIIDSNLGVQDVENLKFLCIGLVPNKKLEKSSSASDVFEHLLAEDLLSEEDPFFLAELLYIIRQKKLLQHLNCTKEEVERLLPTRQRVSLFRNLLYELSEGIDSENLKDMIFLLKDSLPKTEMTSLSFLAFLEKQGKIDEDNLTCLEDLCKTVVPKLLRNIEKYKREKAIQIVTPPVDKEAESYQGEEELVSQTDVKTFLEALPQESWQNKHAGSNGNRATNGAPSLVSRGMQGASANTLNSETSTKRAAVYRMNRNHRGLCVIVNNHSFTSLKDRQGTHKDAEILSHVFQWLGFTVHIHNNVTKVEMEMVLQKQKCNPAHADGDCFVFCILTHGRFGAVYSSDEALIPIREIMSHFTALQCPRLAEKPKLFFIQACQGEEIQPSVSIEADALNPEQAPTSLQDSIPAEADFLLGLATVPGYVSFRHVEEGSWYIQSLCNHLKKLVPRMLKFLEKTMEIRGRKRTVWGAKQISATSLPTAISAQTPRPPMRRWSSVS

[2] = molecular target: T2, Caspase-9 (Homo sapiens, UniProt P55211); test: Inhibition of caspase-9 (unknown origin)
T2 sequence (P55211 whole entry): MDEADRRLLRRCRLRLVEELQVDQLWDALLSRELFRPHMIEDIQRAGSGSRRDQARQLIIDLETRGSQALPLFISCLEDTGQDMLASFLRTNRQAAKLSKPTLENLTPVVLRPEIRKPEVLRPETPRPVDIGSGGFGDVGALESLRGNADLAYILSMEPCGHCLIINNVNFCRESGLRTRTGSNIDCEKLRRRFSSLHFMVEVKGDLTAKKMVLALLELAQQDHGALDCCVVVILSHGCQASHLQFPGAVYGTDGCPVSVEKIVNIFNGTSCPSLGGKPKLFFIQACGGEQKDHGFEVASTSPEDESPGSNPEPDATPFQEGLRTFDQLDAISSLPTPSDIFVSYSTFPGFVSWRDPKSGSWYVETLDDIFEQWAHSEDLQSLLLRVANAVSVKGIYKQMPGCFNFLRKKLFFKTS

[3] = molecular target: Caspase-8 (Homo sapiens, UniProt Q14790); test: Inhibition of caspase-8 (unknown origin)
Sequence of Caspase-8 (Q14790 217-374 limits assumed): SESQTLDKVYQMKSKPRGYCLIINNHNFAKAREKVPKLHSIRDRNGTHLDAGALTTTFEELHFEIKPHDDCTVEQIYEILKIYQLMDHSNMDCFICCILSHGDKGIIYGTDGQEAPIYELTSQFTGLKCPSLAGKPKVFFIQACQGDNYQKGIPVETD
Sequence of Caspase-8 (Q14790 385-479 limits assumed): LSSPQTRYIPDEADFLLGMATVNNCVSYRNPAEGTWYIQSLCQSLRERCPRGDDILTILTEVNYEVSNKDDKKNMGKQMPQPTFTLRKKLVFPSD

[4] = molecular target: T3, Caspase-6 (Homo sapiens, UniProt P55212); test: Inhibition of caspase-6 (unknown origin)
T3 sequence (P55212 whole entry): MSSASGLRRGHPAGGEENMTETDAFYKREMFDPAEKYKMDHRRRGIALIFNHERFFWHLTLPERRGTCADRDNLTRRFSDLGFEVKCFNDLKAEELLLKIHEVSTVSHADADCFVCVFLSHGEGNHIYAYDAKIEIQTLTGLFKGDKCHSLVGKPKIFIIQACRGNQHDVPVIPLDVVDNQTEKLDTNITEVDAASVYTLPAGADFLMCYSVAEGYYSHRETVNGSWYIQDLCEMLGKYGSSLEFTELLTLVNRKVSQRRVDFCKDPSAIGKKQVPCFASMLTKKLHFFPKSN

[5] = molecular target: T4, Caspase-5 (Homo sapiens, UniProt P51878); test: Inhibition of caspase-5 (unknown origin)
T4 sequence (P51878 whole entry): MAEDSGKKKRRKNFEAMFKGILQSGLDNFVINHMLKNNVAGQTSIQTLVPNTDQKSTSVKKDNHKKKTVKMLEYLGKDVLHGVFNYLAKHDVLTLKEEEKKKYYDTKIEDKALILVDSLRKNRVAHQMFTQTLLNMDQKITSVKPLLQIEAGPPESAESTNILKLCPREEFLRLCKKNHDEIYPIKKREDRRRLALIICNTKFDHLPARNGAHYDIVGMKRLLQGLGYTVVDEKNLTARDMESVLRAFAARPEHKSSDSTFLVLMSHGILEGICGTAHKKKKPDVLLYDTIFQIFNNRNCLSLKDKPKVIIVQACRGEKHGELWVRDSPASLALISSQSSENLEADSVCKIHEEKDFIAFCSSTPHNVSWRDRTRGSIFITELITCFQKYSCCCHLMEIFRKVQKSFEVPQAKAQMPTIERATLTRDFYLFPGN

[6] = molecular target: T5, Caspase-7 (Homo sapiens, UniProt P55210); test: Inhibition of caspase-7 (unknown origin)
T5 sequence (P55210 whole entry): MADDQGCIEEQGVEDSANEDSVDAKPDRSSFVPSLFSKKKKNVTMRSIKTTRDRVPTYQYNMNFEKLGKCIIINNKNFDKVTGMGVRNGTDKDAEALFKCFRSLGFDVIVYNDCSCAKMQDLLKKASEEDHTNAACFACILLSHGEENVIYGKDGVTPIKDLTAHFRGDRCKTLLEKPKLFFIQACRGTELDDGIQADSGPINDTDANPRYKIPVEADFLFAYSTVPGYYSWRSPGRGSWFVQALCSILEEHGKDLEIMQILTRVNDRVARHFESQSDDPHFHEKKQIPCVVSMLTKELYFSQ

[7] = molecular target: T6, Caspase-4 (Homo sapiens, UniProt P49662); test: Inhibition of caspase-4 (unknown origin)
T6 sequence (P49662 whole entry): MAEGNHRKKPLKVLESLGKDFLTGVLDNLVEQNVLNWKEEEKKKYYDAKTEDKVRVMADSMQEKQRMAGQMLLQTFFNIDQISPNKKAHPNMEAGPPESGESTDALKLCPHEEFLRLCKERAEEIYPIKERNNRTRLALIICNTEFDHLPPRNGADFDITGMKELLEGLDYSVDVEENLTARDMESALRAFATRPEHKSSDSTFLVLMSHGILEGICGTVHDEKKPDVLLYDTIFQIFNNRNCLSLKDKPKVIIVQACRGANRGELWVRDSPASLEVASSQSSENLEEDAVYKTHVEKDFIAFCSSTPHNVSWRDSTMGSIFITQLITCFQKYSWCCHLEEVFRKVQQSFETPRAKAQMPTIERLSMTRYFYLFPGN

[8] = molecular target: T7, Caspase-3 (Homo sapiens, UniProt P42574); test: Inhibition of caspase-3 (unknown origin)
T7 sequence (P42574 whole entry): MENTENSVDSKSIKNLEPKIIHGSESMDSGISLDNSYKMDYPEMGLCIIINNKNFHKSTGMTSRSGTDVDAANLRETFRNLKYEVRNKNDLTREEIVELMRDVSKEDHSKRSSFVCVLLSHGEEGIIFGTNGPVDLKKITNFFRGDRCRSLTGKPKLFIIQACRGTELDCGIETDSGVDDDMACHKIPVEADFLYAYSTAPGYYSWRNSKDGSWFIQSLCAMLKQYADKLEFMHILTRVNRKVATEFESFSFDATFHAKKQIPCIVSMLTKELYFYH

[9] = molecular target: T8, Caspase-2 (Homo sapiens, UniProt P42575); test: Inhibition of caspase-2 (unknown origin)
T8 sequence (P42575 whole entry): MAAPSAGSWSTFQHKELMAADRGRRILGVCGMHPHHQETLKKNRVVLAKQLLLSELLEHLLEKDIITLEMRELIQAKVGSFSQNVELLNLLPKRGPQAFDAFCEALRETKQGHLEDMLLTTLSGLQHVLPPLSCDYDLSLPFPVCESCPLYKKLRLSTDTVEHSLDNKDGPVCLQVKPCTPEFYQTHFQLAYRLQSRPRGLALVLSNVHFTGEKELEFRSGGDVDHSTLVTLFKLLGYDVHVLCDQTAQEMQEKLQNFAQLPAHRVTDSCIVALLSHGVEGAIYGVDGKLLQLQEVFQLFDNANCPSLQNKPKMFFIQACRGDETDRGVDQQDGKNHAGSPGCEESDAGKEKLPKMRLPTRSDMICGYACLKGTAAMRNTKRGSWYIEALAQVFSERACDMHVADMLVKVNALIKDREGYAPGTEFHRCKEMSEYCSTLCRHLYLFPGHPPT

[10] = molecular target: T9, Caspase-1 (Homo sapiens, UniProt P29466); test: Inhibition of caspase-1 (unknown origin)
T9 sequence (P29466 whole entry): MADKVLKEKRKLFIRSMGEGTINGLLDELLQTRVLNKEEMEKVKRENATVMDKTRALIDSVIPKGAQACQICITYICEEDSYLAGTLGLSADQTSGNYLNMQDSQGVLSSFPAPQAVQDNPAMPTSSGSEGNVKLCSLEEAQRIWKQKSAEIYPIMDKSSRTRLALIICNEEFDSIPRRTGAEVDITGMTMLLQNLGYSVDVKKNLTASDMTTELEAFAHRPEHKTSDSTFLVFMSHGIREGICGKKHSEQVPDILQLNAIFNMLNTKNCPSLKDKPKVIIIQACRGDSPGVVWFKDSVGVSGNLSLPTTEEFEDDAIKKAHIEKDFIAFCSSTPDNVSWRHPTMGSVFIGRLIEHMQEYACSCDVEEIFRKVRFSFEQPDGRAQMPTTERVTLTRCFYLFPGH

## CC(C)(C)[C@@H](NC(=O)c1ccc(N)c(Cl)c1)C(=O)N1CCC[C@H]1C(=O)N[C@H](/C=C/S(C)(=O)=O)CC(=O)O
[1]
  IC50: 2670 nM
[2]
  IC50: 2300 nM
[3]
  IC50: 12.9 µM
[4]
  IC50: > 100 µM
[5]
  IC50: 0.56 µM
[6]
  IC50: 24.5 µM
[7]
  IC50: 90 nM
[8]
  IC50: > 100 µM
[9]
  IC50: > 100 µM
[10]
  IC50: 20 nM

## CC(C)(C)[C@H](NC(=O)[C@H](CC(=O)O)NC(=O)OCc1ccccc1)C(=O)N1CC[C@H]1C(=O)N[C@H](/C=C/S(C)(=O)=O)CC(=O)O
[1]
  IC50: 420 nM
[2]
  IC50: 1100 nM
[3]
  IC50: 4.1 µM
[4]
  IC50: > 100 µM
[5]
  IC50: 35.2 µM
[6]
  IC50: 0.5 µM
[7]
  IC50: 5600 nM
[8]
  IC50: 0.28 µM
[9]
  IC50: 13.1 µM
[10]
  IC50: 13200 nM

## CC[C@H](C)[C@H](NC(=O)[C@H](CCC(N)=O)NC(=O)[C@@H](NC(=O)OCc1ccccc1)C(C)C)C(=O)N[C@H](/C=C/S(C)(=O)=O)CC(=O)O
[1]
  IC50: 130 nM
[2]
  IC50: 800 nM
[3]
  IC50: 0.6 µM
[4]
  IC50: 0.6 µM
[5]
  IC50: 19.5 µM
[6]
  IC50: > 100 µM
[7]
  IC50: 370 nM
[8]
  IC50: 6.9 µM
[9]
  IC50: > 100 µM
[10]
  IC50: 2700 nM

## CC[C@H](C)[C@H](NC(=O)[C@H](CCC(N)=O)NC(=O)[C@H](Cc1c[nH]c2ccccc12)NC(=O)OCc1ccccc1)C(=O)N[C@H](/C=C/S(C)(=O)=O)CC(=O)O
[1]
  IC50: 3300 nM
[2]
  IC50: 1740 nM
[3]
  IC50: 5.93 µM
[4]
  IC50: 100 µM
[5]
  IC50: 0.75 µM
[6]
  IC50: 23.7 µM
[7]
  IC50: 180 nM
[8]
  IC50: 6.5 µM
[9]
  IC50: > 100 µM
[10]
  IC50: 26 nM

## CCOC(=O)/C=C/[C@H](CC(=O)O)NC(=O)[C@@H](NC(=O)[C@@H](NC(=O)[C@H](CC(=O)O)NC(=O)OCc1ccccc1)c1ccccc1)C(C)C
[4]
  IC50: > 100 µM
[5]
  IC50: > 100 µM
[9]
  IC50: > 100 µM
